Results as given in patent US8106023B2, “1,4-benzothiepin-1, 1-dioxide derivatives with improved properties method for producing the same, drugs containing said compounds and the use thereof” (Sanofi-Aventis Deutschland GmbH, priority 2006, dated 2012).

Molecular target: T1, human IBAT (Homo sapiens, UniProt Q12908)
T1 construct: Bases 599 to 1645 correspond to the complete coding region of human IBAT; expressed in transfected cells; pcDNA1 vector
T1 sequence (Q12908 1-348): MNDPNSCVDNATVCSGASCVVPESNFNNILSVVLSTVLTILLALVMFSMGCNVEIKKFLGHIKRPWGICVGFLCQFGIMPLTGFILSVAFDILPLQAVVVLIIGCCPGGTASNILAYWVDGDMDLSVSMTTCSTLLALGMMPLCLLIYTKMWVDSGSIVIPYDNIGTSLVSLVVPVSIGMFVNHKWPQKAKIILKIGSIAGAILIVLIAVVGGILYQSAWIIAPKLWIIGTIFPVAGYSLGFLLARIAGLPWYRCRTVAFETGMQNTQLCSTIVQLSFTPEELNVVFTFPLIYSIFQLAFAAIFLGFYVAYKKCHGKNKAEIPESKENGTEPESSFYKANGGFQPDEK
Assay: in vitro IBAT inhibition assay: IBAT-dependent uptake of [3H]-taurocholic acid into CHO-hIBAT cells
Format: cell-based
Details: 10 μM taurocholic acid, 60 min at room temperature, read-out: IC-50 (human IBAT)
Procedure: The cell clone with the highest uptake activity for [^3H]-TCA, referred to hereinafter as CHO-hIBAT, was selected for the further assays and further cultured in the presence of 400 μg/ml Geneticin.
3. Measurement of the Inhibitory Effect of the Compound of the Invention on the IBAT-Dependent Uptake of Taurocholic Acid into Cells
CHO-hIBAT cells were seeded in a concentration of 40 000 cells per well in poly-D-lysine-coated 96-well plates in cell culture medium and cultured for 24 h. […] Finally, 100 μl of scintillation fluid were added to each well, and the radioactivity taken up into the cells was determined in a MicroBeta Scintillation Microplate Reader from Wallac.
The half-maximum inhibitory effect of the test compound (IC50 value, inhibitory concentration 50) was determined in the following way: • 1. […] This is the measurement in the absence of substance, measured in sodium-containing transport assay buffer. • 2. […] This is the measurement in the absence of substance, measured in sodium-free transport assay buffer. • 3. […]

Row | IC50 | SMILES
1 | 2.5 nM | CCCC[C@]1(CC)CS(=O)(=O)c2ccc(N(C)C)cc2[C@@H](c2cccc(NC(=O)N[C@@H]3O[C@H](CO)[C@@H](O)[C@H](O)[C@H]3O)c2)[C@H]1O [Example 1]
2 | 6 nM | CCCCC1(CCCC)CS(=O)(=O)c2ccc(N(C)C)cc2[C@@H](c2cccc(NC(=O)N[C@@H]3O[C@H](CO)[C@@H](O)[C@H](O)[C@H]3O)c2)[C@H]1O [Example 2]
